Measured values taken from ChEMBL document CHEMBL4130617, “Prenylated 2-Phenoxychromones and Flavonoids from Epimedium brevicornum and Revised Structures of Epimedonins A and B” (J Nat Prod, 2018).

Columns and labels:
HL-60 [1] = assay: Growth inhibition of human HL60 cells at 40 uM after 48 hrs by MTS assay relative to control; format: functional; conditions: HL-60, 48 h, read-out: GI
SMMC-7721 [2] = assay: Growth inhibition of human SMMC7721 cells at 40 uM after 48 hrs by MTS assay relative to control; format: functional; conditions: SMMC-7721, 48 h, read-out: GI
A549 [3] = assay: Growth inhibition of human A549 cells at 40 uM after 48 hrs by MTS assay relative to control; format: functional; conditions: A549, 48 h, read-out: GI
MCF7 [4] = assay: Growth inhibition of human MCF7 cells at 40 uM after 48 hrs by MTS assay relative to control; format: functional; conditions: MCF7, 48 h, read-out: GI
SW480 [5] = assay: Growth inhibition of human SW480 cells at 40 uM after 48 hrs by MTS assay relative to control; format: functional; conditions: SW480, 48 h, read-out: GI
HL-60 [6] = assay: Cytotoxicity against human HL60 cells after 48 hrs by MTS assay; format: functional, cell-based; conditions: HL-60, 48 h
SMMC-7721 [7] = assay: Cytotoxicity against human SMMC7721 cells after 48 hrs by MTS assay; format: functional, cell-based; conditions: SMMC-7721, 48 h
A549 [8] = assay: Cytotoxicity against human A549 cells after 48 hrs by MTS assay; format: functional, cell-based; conditions: A549, 48 h
MCF7 [9] = assay: Cytotoxicity against human MCF7 cells after 48 hrs by MTS assay; format: functional, cell-based; conditions: MCF7, 48 h
SW480 [10] = assay: Cytotoxicity against human SW480 cells after 48 hrs by MTS assay; format: functional, cell-based; conditions: SW480, 48 h

Compound	inhibition of growth at 40 µM (HL-60 [1]) [%]	inhibition of growth at 40 µM (SMMC-7721 [2]) [%]	inhibition of growth at 40 µM (A549 [3]) [%]	inhibition of growth at 40 µM (MCF7 [4]) [%]	inhibition of growth at 40 µM (SW480 [5]) [%]	IC50 (HL-60 [6]) [µM]	IC50 (SMMC-7721 [7]) [µM]	IC50 (A549 [8]) [µM]	IC50 (MCF7 [9]) [µM]	IC50 (SW480 [10]) [µM]
C=C(C)C(O)Cc1c(O)cc(O)c2c(=O)cc(Oc3ccc(O)cc3)oc12 (stereo not given)	> 50	> 50	> 50	> 50	> 50	> 10	> 10	> 10	> 10	> 10
CC(C)=CCc1cc(Oc2cc(=O)c3c(O)cc(O)c(CC=C(C)C)c3o2)cc(CC=C(C)C)c1O	> 50	> 50	> 50	> 50	> 50	> 10	> 10	> 10	> 10	> 10
CC(=O)O[C@H]1C(=O)[C@@]2(C)[C@H]([C@H](OC(=O)c3ccccc3)[C@]3(O)C[C@H](OC(=O)[C@H](O)[C@@H](NC(=O)c4ccccc4)c4ccccc4)C(C)=C1C3(C)C)[C@]1(OC(C)=O)CO[C@@H]1C[C@@H]2O [PACLITAXEL]	–	–	–	–	–	< 0.008	< 0.008	< 0.008	< 0.008	< 0.008
CC(C)=CCc1cc(Oc2cc(=O)c3c(O)cc(O)c(CC=C(C)C)c3o2)ccc1O	> 50	> 50	> 50	> 50	> 50	> 10	> 10	> 10	> 10	> 10
COc1cc(O)c2c(=O)cc(Oc3ccc(O)cc3)oc2c1C[C@@H](O)C(C)(C)O	> 50	> 50	> 50	> 50	> 50	> 10	> 10	> 10	> 10	> 10
COc1cc(O)c2c(=O)cc(Oc3ccc(O)cc3)oc2c1CC=C(C)C	> 50	> 50	> 50	> 50	> 50	> 10	> 10	> 10	> 10	> 10
COc1ccc(-c2oc3c(c(O)cc4oc(C(C)(C)O)cc43)c(=O)c2O[C@@H]2O[C@@H](C)[C@H](O)[C@@H](O)[C@H]2O[C@@H]2O[C@@H](C)[C@H](O)[C@@H](O)[C@H]2O)cc1	> 50	> 50	> 50	> 50	> 50	> 10	> 10	> 10	> 10	> 10
CC(C)=CCc1c(O)cc(O)c2c(=O)cc(Oc3ccc(O)cc3)oc12	> 50	> 50	> 50	> 50	> 50	> 10	> 10	> 10	> 10	> 10
CC(C)=CCc1cc(-c2cc(=O)c3c(O)cc(O)c(CC=C(C)C)c3o2)cc(CC=C(C)C)c1O	> 50	> 50	> 50	> 50	> 50	4.3	> 10	7.1	5.4	5.1
